Test results taken from the OligoGym collection.
HELM strings list units from the 5' end as sugar, base in round brackets, then linkage (d deoxyribose, r ribose, m 2'-O-methyl, p phosphodiester). Strings are as the collection lists them, not checked against the first reports. ss, as = sense and antisense strand; [lna] = locked nucleic acid (LNA); [s4r] = 4'-thioribose; [fl2r] = 2'-fluoro

Conditions: siRNA
Also: test system not given here.

Substance	target mRNA knockdown
RNA1{m(C)p.r(C)p.m(U)p.r(C)p.m(C)p.r(C)p.m(C)p.r(A)p.m(U)p.r(C)p.m(C)p.r(C)p.m(C)p.r(U)p.m(U)p.r(U)p.m(U)p.r(A)p.m(A)p.r(T)p.r(T)}|RNA2{r(U)p.r(U)p.r(A)p.r(A)p.r(A)p.r(A)p.r(G)p.r(G)p.r(G)p.r(G)p.r(A)p.r(U)p.m(G)p.r(G)p.m(G)p.r(G)p.m(A)p.r(G)p.m(G)p.r(T)p.r(T)}$$$RNA1{StrandType:ss}|RNA2{StrandType:as}$	48%
RNA1{r(A)p.r(U)p.r(C)p.r(U)p.r(G)p.r(A)p.r(A)p.r(G)p.r(A)p.r(A)p.r(G)p.r(G)p.r(A)p.r(G)p.r(A)p.r(A)p.r(A)p.r(A)p.r(A)p.r(T)p.r(T)}|RNA2{[lna](T)p.r(U)p.r(U)p.r(U)p.r(U)p.r(C)p.r(U)p.r(C)p.r(C)p.r(U)p.r(U)p.r(C)p.r(U)p.r(U)p.r(C)p.r(A)p.r(G)p.r(A)p.r(U)p.[lna](T)p.[lna](T)}$$$RNA1{StrandType:ss}|RNA2{StrandType:as}$	22%
RNA1{r(C)p.r(U)p.r(U)p.r(A)p.r(C)p.r(G)p.r(C)p.r(U)p.r(G)p.r(A)p.r(G)p.r(U)p.r(A)p.r(C)p.r(U)p.r(U)p.r(C)p.r(G)p.r(A)p.r(T)p.r(T)}|RNA2{r(U)p.r(C)p.r(G)p.r(A)p.r(A)p.[lna](G)p.r(U)p.r(A)p.r(C)p.r(U)p.r(C)p.r(A)p.r(G)p.r(C)p.r(G)p.r(U)p.r(A)p.r(A)p.r(G)p.r(T)p.r(T)}$$$RNA1{StrandType:ss}|RNA2{StrandType:as}$	82%
RNA1{r(C)p.r(G)p.r(U)p.r(A)p.r(C)p.r(G)p.r(C)p.r(G)p.r(G)p.r(A)p.r(A)p.r(U)p.r(A)p.r(C)p.r(U)p.r(U)p.r(C)p.r(G)p.r(A)p.r(T)p.r(T)}|RNA2{[s4r](U)p.[s4r](C)p.r(G)p.r(A)p.r(A)p.r(G)p.r(U)p.r(A)p.r(U)p.r(U)p.r(C)p.r(C)p.r(G)p.r(C)p.r(G)p.r(U)p.r(A)p.[s4r](C)p.[s4r](G)p.r(T)p.r(T)}$$$RNA1{StrandType:ss}|RNA2{StrandType:as}$	88.8%
RNA1{r(A)p.r(U)p.r(C)p.r(A)p.r(C)p.r(A)p.r(A)p.r(A)p.r(C)p.r(C)p.r(C)p.r(C)p.m(U)p.r(A)p.r(G)p.r(A)p.r(G)p.r(G)p.r(G)p.r(T)p.r(T)}|RNA2{r(C)p.r(C)p.r(C)p.r(U)p.r(C)p.m(U)p.r(A)p.r(G)p.r(G)p.r(G)p.r(G)p.r(U)p.r(U)p.r(U)p.r(G)p.r(U)p.r(G)p.r(A)p.r(U)p.r(T)p.r(T)}$$$RNA1{StrandType:ss}|RNA2{StrandType:as}$	29%
RNA1{r(G)p.r(G)p.r(U)p.r(A)p.r(G)p.r(G)p.r(G)p.r(U)p.r(U)p.r(G)p.r(A)p.r(A)p.r(G)p.r(A)p.r(G)p.r(A)p.r(C)p.r(U)p.r(U)p.r(T)p.r(T)}|RNA2{r(A)p.r(A)p.r(G)p.r(U)p.r(C)p.r(U)p.r(C)p.r(U)p.r(U)p.r(C)p.r(A)p.r(A)p.r(C)p.r(C)p.r(C)p.m(U)p.r(A)p.r(C)p.r(C)p.r(T)p.r(T)}$$$RNA1{StrandType:ss}|RNA2{StrandType:as}$	95%
RNA1{r(G)p.r(G)p.r(C)p.r(U)p.[fl2r](U)p.r(A)p.r(G)p.r(U)p.r(C)p.r(A)p.r(C)p.r(U)p.r(C)p.r(C)p.r(U)p.r(C)p.r(U)p.r(U)p.r(C)p.r(T)p.r(T)}|RNA2{r(G)p.r(A)p.r(A)p.r(G)p.r(A)p.r(G)p.r(G)p.r(A)p.r(G)p.r(U)p.r(G)p.r(A)p.r(C)p.[fl2r](U)p.r(A)p.r(A)p.r(G)p.r(C)p.r(C)p.r(T)p.r(T)}$$$RNA1{StrandType:ss}|RNA2{StrandType:as}$	69%
RNA1{r(G)p.r(G)p.r(G)p.r(G)p.r(C)p.r(U)p.r(C)p.r(U)p.r(U)p.r(C)p.m(U)p.r(A)p.r(C)p.r(A)p.m(U)p.r(U)p.r(C)p.r(C)p.r(C)p.r(T)p.r(T)}|RNA2{r(G)p.r(G)p.r(G)p.r(A)p.r(A)p.m(U)p.r(G)p.m(U)p.r(A)p.r(G)p.r(A)p.r(A)p.r(G)p.r(A)p.r(G)p.r(C)p.r(C)p.r(C)p.r(C)p.r(T)p.r(T)}$$$RNA1{StrandType:ss}|RNA2{StrandType:as}$	68%
